Source: ChEMBL document CHEMBL1134421, “Anticancer properties for 4,4'-dihydroxybenzophenone-2,4-dinitrophenylhydrazone (A-007)/3,7-diaminophenothiazin-5-ium double salts” (Bioorg Med Chem Lett, 2001)
≈ marks a conversion by molar mass, not a printed value.

Columns and labels:
[1] = test system: Breast cancer cell line; assay: Tested for anticancer activity against human breast cancer; type: functional, cell-based
[2] = test system: Ovarian cancer cell line; assay: Tested for anticancer activity against human ovarian cancer; type: functional, cell-based
[3] = test system: Melanoma cell; assay: Tested for anticancer activity against human melanoma; type: functional, cell-based
[4] = Tested for anticancer activity against human lung cancer (NSCLC); type: functional
[5] = species on record: Homo sapiens; assay: Tested against normal human peripheral blood dendritic cells, expressed as IC50; type: functional, cell-based
[6] = species on record: Rattus norvegicus; assay: Tested for diffusion of compound into rat skin receptor fluid, at a dose of 0.05 mg; type: functional
[7] = Homo sapiens, Melanoma cell, read-out: IC50

| SMILES | IC50 [1] [µg/mL] | IC50 [2] [µg/mL] | IC50 ([3]; melanoma cell) [µg/mL] | IC50 [4] [µg/mL] | IC50 [5] [µg/mL] | Activity [6] [ng/mL] | IC50 [3, 7] [µg/mL] |
| --- | --- | --- | --- | --- | --- | --- | --- |
| CN(C)c1ccc2nc3ccc(N(C)C)cc3[s+]c2c1.O=[N+]([O-])c1ccc(NN=C(c2ccc(O)cc2)c2ccc(O)cc2)c([N+](=O)[O-])c1.[Cl-] | 2.5 | 2 | 1 | 2 | > 10 | 9 | – |
| Cc1cc2nc3ccc(N(C)C)cc3[s+]c2cc1N.O=[N+]([O-])c1ccc(NN=C(c2ccc(O)cc2)c2ccc(O)cc2)c([N+](=O)[O-])c1.[Cl-] | 1.5 | – | – | 3 | – | – | 4 |
| Nc1ccc2nc3ccc(N)cc3[s+]c2c1.O=[N+]([O-])c1ccc(NN=C(c2ccc(O)cc2)c2ccc(O)cc2)c([N+](=O)[O-])c1.[Cl-] | 0.9 | 0.2 | – | > 10 | – | – | – |
| COc1cccc2c1C(=O)c1c(O)c3c(c(O)c1C2=O)C[C@@](O)(C(=O)CO)C[C@@H]3O[C@H]1C[C@H](N)[C@H](O)[C@H](C)O1 [DOXORUBICIN] | 0.9 (≈ 1.66 µM) | – | – | > 30 | – | – | > 5 |
| O=[N+]([O-])c1ccc(NN=C(c2ccc(O)cc2)c2ccc(O)cc2)c([N+](=O)[O-])c1 [SIVIFENE] | > 10 | 9 (≈ 22.8 µM) | – | 4 (≈ 10.1 µM) | > 10 | – | > 10 |
